Test results as given in patent publication US10106556B2, “Heterocyclic compound” (TAKEDA PHARMACEUTICAL COMPANY LIMITED, priority 2015, dated 2018).

What follows are compounds tested against T1, His-hMAGL (recombinant polyhistidine tagged human MAGL protein) (Homo sapiens, UniProt Q99685) (assay: Measurement of MAGL inhibitory activity (arachidonic acid production from 2-arachidonylglycerol, RapidFire-mass spectrometry)). Conditions: MAGL inhibitory rate at 10 μM test compound; 60 min preincubation with His-hMAGL, 2-arachidonylglycerol substrate, 10 min reaction at room temperature.
T1 construct: made in house; host or cells: E. coli BL21(DE3)
T1 sequence (Q99685 1-303): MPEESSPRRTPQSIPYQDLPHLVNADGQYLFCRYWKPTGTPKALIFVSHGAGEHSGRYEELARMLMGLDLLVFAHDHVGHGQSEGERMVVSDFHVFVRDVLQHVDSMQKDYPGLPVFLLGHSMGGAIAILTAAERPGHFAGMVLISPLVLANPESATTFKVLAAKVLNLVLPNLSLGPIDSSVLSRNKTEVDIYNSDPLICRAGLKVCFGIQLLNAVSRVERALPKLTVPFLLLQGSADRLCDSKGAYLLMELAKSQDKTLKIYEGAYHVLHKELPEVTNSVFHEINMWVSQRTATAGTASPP
Type: biochemical
Outline: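 Recombinant His-tagged human MAGL converted 2-arachidonylglycerol to arachidonic acid. Reactions received acetonitrile with 3 μM arachidonic acid-d8 as internal standard, and product was quantified by RapidFire SPE (C4) with negative-mode SRM mass spectrometry. Percent inhibition was calculated against compound-free and enzyme-free controls.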

Compound | inhibition at 10 µM [%]
O=C1COc2cc(F)c(C(=O)N3CCC(COc4cccc5scnc45)CC3)cc2N1 [Example 186, 6-((4-((1,3-benzothiazol-4-yloxy)methyl)piperidin-1-yl)carbonyl)-7-fluoro-2H-1,4-benzoxazin-3(4H)-one] | 97
Cc1nc2c(OCC3CCN(C(=O)c4cc5c(cc4F)OCC(=O)N5)CC3)cccc2s1 [Example 187, 7-fluoro-6-((4-(((2-methyl-1,3-benzothiazol-4-yl)oxy)methyl)piperidin-1-yl)carbonyl)-2H-1,4-benzoxazin-3(4H)-one] | 98
O=C1COc2cc(F)c(C(=O)N3CC(COc4ccc(C(F)(F)F)cc4F)C3)cc2N1 [Example 188, 7-fluoro-6-((3-((2-fluoro-4-(trifluoromethyl)phenoxy)methyl)azetidin-1-yl)carbonyl)-2H-1,4-benzoxazin-3(4H)-one] | 97
O=C1COc2cc(F)c(C(=O)N3CC(COc4ccc(Cl)cc4-c4ccccn4)C3)cc2N1 [Example 189, 6-((3-((4-chloro-2-(pyridin-2-yl)phenoxy)methyl)azetidin-1-yl)carbonyl)-7-fluoro-2H-1,4-benzoxazin-3(4H)-one] | 102
Cc1ccc(-c2cc(Cl)ccc2OCC2CN(C(=O)c3cc4c(cc3F)OCC(=O)N4)C2)cn1 [Example 190, 6-((3-((4-chloro-2-(6-methylpyridin-3-yl)phenoxy)methyl)azetidin-1-yl)carbonyl)-7-fluoro-2H-1,4-benzoxazin-3(4H)-one] | 102
Cc1ncccc1-c1cc(Cl)ccc1OCC1CN(C(=O)c2cc3c(cc2F)OCC(=O)N3)C1 [Example 191, 6-((3-((4-chloro-2-(2-methylpyridin-3-yl)phenoxy)methyl)azetidin-1-yl)carbonyl)-7-fluoro-2H-1,4-benzoxazin-3(4H)-one] | 102
O=C1COc2cc(F)c(C(=O)N3CC(COc4ccc(Cl)cc4-c4cccnc4)C3)cc2N1 [Example 192, 6-((3-((4-chloro-2-(pyridin-3-yl)phenoxy)methyl)azetidin-1-yl)carbonyl)-7-fluoro-2H-1,4-benzoxazin-3(4H)-one] | 99
Cc1cc(-c2cc(Cl)ccc2OCC2CN(C(=O)c3cc4c(cc3F)OCC(=O)N4)C2)ccn1 [Example 193, 6-((3-((4-chloro-2-(2-methylpyridin-4-yl)phenoxy)methyl)azetidin-1-yl)carbonyl)-7-fluoro-2H-1,4-benzoxazin-3(4H)-one] | 102
O=C1COc2cc(F)c(C(=O)N3CC(COc4ccc(Br)cc4F)C3)cc2N1 [Example 194, 6-((3-((4-bromo-2-fluorophenoxy)methyl)azetidin-1-yl)carbonyl)-7-fluoro-2H-1,4-benzoxazin-3(4H)-one] | 103
O=C1COc2cc(F)c(C(=O)N3CC(COc4ccc(Cl)cc4-c4ccc(F)cn4)C3)cc2N1 [Example 195, 6-((3-((4-chloro-2-(5-fluoropyridin-2-yl)phenoxy)methyl)azetidin-1-yl)carbonyl)-7-fluoro-2H-1,4-benzoxazin-3(4H)-one] | 101
O=C1COc2cc(F)c(C(=O)N3CC(COc4ccc(Cl)cc4-c4ccc(Cl)cn4)C3)cc2N1 [Example 196, 6-((3-((4-chloro-2-(5-chloropyridin-2-yl)phenoxy)methyl)azetidin-1-yl)carbonyl)-7-fluoro-2H-1,4-benzoxazin-3(4H)-one] | 94
Cc1cccc(-c2cc(Cl)ccc2OCC2CN(C(=O)c3cc4c(cc3F)OCC(=O)N4)C2)n1 [Example 197, 6-((3-((4-chloro-2-(6-methylpyridin-2-yl)phenoxy)methyl)azetidin-1-yl)carbonyl)-7-fluoro-2H-1,4-benzoxazin-3(4H)-one] | 104
O=C1COc2cc(F)c(C(=O)N3CC(COc4ccc(Cl)cc4-c4cccnc4Cl)C3)cc2N1 [Example 198, 6-((3-((4-chloro-2-(2-chloropyridin-3-yl)phenoxy)methyl)azetidin-1-yl)carbonyl)-7-fluoro-2H-1,4-benzoxazin-3(4H)-one] | 100
CCc1ncccc1-c1cc(Cl)ccc1OCC1CN(C(=O)c2cc3c(cc2F)OCC(=O)N3)C1 [Example 199, 6-((3-((4-chloro-2-(2-ethylpyridin-3-yl)phenoxy)methyl)azetidin-1-yl)carbonyl)-7-fluoro-2H-1,4-benzoxazin-3(4H)-one] | 103
O=C1COc2cc(F)c(C(=O)N3CC(COc4ccc(Cl)cc4-c4cncc(F)c4)C3)cc2N1 [Example 200, 6-((3-((4-chloro-2-(5-fluoropyridin-3-yl)phenoxy)methyl)azetidin-1-yl)carbonyl)-7-fluoro-2H-1,4-benzoxazin-3(4H)-one] | 102
O=C1COc2cc(F)c(C(=O)N3CC(COc4ccc(Cl)cc4-c4cncc(Cl)c4)C3)cc2N1 [Example 201, 6-((3-((4-chloro-2-(5-chloropyridin-3-yl)phenoxy)methyl)azetidin-1-yl)carbonyl)-7-fluoro-2H-1,4-benzoxazin-3(4H)-one] | 101
Cc1cncc(-c2cc(Cl)ccc2OCC2CN(C(=O)c3cc4c(cc3F)OCC(=O)N4)C2)c1 [Example 202, 6-((3-((4-chloro-2-(5-methylpyridin-3-yl)phenoxy)methyl)azetidin-1-yl)carbonyl)-7-fluoro-2H-1,4-benzoxazin-3(4H)-one] | 100
Cc1ccncc1-c1cc(Cl)ccc1OCC1CN(C(=O)c2cc3c(cc2F)OCC(=O)N3)C1 [Example 203, 6-((3-((4-chloro-2-(4-methylpyridin-3-yl)phenoxy)methyl)azetidin-1-yl)carbonyl)-7-fluoro-2H-1,4-benzoxazin-3(4H)-one] | 103
O=C1COc2cc(F)c(C(=O)N3CC(COc4ccc(Cl)cc4-c4ccc(F)nc4)C3)cc2N1 [Example 204, 6-((3-((4-chloro-2-(6-fluoropyridin-3-yl)phenoxy)methyl)azetidin-1-yl)carbonyl)-7-fluoro-2H-1,4-benzoxazin-3(4H)-one] | 100
O=C1COc2cc(F)c(C(=O)N3CC(COc4ccc(Cl)cc4-c4ccc(Cl)nc4)C3)cc2N1 [Example 205, 6-((3-((4-chloro-2-(6-chloropyridin-3-yl)phenoxy)methyl)azetidin-1-yl)carbonyl)-7-fluoro-2H-1,4-benzoxazin-3(4H)-one] | 103
O=C1COc2cc(F)c(C(=O)N3CC(COc4ccc(Cl)cc4-c4ccncc4)C3)cc2N1 [Example 206, 6-((3-((4-chloro-2-(pyridin-4-yl)phenoxy)methyl)azetidin-1-yl)carbonyl)-7-fluoro-2H-1,4-benzoxazin-3(4H)-one] | 104
O=C1COc2cc(F)c(C(=O)N3CC(COc4ccc(Cl)cc4-c4ccnc(F)c4)C3)cc2N1 [Example 207, 6-((3-((4-chloro-2-(2-fluoropyridin-4-yl)phenoxy)methyl)azetidin-1-yl)carbonyl)-7-fluoro-2H-1,4-benzoxazin-3(4H)-one] | 100
O=C1COc2cc(F)c(C(=O)N3CC(COc4ccc(Cl)cc4-c4ccnc(Cl)c4)C3)cc2N1 [Example 208, 6-((3-((4-chloro-2-(2-chloropyridin-4-yl)phenoxy)methyl)azetidin-1-yl)carbonyl)-7-fluoro-2H-1,4-benzoxazin-3(4H)-one] | 98
O=C1COc2cc(F)c(C(=O)N3CC(COc4ccc(Cl)cc4-c4ccncc4F)C3)cc2N1 [Example 209, 6-((3-((4-chloro-2-(3-fluoropyridin-4-yl)phenoxy)methyl)azetidin-1-yl)carbonyl)-7-fluoro-2H-1,4-benzoxazin-3(4H)-one] | 101
O=C1COc2cc(F)c(C(=O)N3CC(COc4ccc(Cl)cc4-c4ccncc4Cl)C3)cc2N1 [Example 210, 6-((3-((4-chloro-2-(3-chloropyridin-4-yl)phenoxy)methyl)azetidin-1-yl)carbonyl)-7-fluoro-2H-1,4-benzoxazin-3(4H)-one] | 101
O=C1COc2cc(F)c(C(=O)N3CC(COc4ccc(Cl)cc4C4=CCOCC4)C3)cc2N1 [Example 211, 6-((3-((4-chloro-2-(3,6-dihydro-2H-pyran-4-yl)phenoxy)methyl)azetidin-1-yl)carbonyl)-7-fluoro-2H-1,4-benzoxazin-3(4H)-one] | 101
CN1CC=C(c2cc(Cl)ccc2OCC2CN(C(=O)c3cc4c(cc3F)OCC(=O)N4)C2)CC1 [Example 212, 6-((3-((4-chloro-2-(1-methyl-1,2,3,6-tetrahydropyridin-4-yl)phenoxy)methyl)azetidin-1-yl)carbonyl)-7-fluoro-2H-1,4-benzoxazin-3(4H)-one] | 94
Cn1cc(-c2cc(Cl)ccc2OCC2CN(C(=O)c3cc4c(cc3F)OCC(=O)N4)C2)cn1 [Example 213, 6-((3-((4-chloro-2-(1-methyl-1H-pyrazol-4-yl)phenoxy)methyl)azetidin-1-yl)carbonyl)-7-fluoro-2H-1,4-benzoxazin-3(4H)-one] | 100
O=C1COc2cc(F)c(C(=O)N3CC(COc4ccc(Cl)cc4-c4cnn(C(F)F)c4)C3)cc2N1 [Example 214, 6-((3-((4-chloro-2-(1-(difluoromethyl)-1H-pyrazol-4-yl)phenoxy)methyl)azetidin-1-yl)carbonyl)-7-fluoro-2H-1,4-benzoxazin-3(4H)-one] | 104
O=C1COc2cc(F)c(C(=O)N3CC(COc4ccc(Cl)cc4-c4cnn(C5CC5)c4)C3)cc2N1 [Example 215, 6-((3-((4-chloro-2-(1-cyclopropyl-1H-pyrazol-4-yl)phenoxy)methyl)azetidin-1-yl)carbonyl)-7-fluoro-2H-1,4-benzoxazin-3(4H)-one] | 99
